Data as given in article PMC4351682, “Formononetin inhibits enterovirus 71 replication by regulating COX- 2/PGE2 expression” (Virology Journal, 2015).

How the values were obtained:
EV71 SHZH98 strain = test: CPE inhibition assay for anti-EV71 in SK-N-SH cells; format: cell-based, enterovirus 71; conditions: Enterovirus A, 48 h
Experimental: The anti-EV71 activity of formononetin was assayed by CPE inhibition method. Briefly, cells (3 × 10^4 cells/well) were plated into 96-well culture plates for incubation of 24 h. The medium was then removed and cells were infected with EV71 of 80 pfu/well. Then, various concentrations of formononetin were supplemented for incubation of another 48 h. […] The selectivity index (SI) was calculated as the ratio of TC50/IC50 [19].

EV71 (SHZH98) = test: Time course assay (CPE) in SK-N-SH cells; format: cell-based, enterovirus 71; conditions: for Reduction of virus-induced CPE, time course: CPE at 48 h
Experimental: Figure 1 The chemical structure of formononetin and time course assay. (A) The illustration of the protocol of viral adsorption and treatment with formononetin and pirodavir. SK-N-SH cells were infected with 80 pfu/well of EV71 (SHZH98). Formononetin (9.21 μM) and pirodavir (0.84 μM) was added at the indicated times, respectively. […] The cytopathic effect (CPE) assay was shown. (C) The chemical structure of formononetin.
The antiviral activity of formononetin was examined at different time periods before and after viral infection as shown in Figure 1A. Briefly, cells (3 × 10^4 cells/well) were seeded and incubated for 16 h. The cell monolayer was then infected with EV71 of 80 pfu/well. Different concentrations of formononetin were supplemented into cells following the protocol. Cells were then incubated for another 48 h and assayed with CPE assay.

EV71 VP1 RNA = test: One-step qRT-PCR of EV71 VP1 RNA in SK-N-SH cells; format: cell-based, enterovirus 71; conditions: EV71 SHZH98 480 pfu/well, 24 h treatment
Source text: Figure 2 The antiviral effect of formononetin and pirodavir against EV71 in SK-N-SH cells. (A) Formononetin and pirodavir reduced the expression of EV71 VP1 protein in SK-N-SH cells by western blot assay. (B) Formononetin and pirodavir reduced the expression of EV71 VP1 protein in SK-N-SH cells by immunofluorescence assay. Cells were examined using a fluorescence microscopy (×100). (C) Formononetin and pirodavir reduced the expression of EV71 VP1 RNA by one-step qRT-PCR assay. *P < 0.001 ^# P < 0.05.
SK-N-SH cells (9 × 10^5cells/well) were plated into 6-well culture plates for incubation of 16 h. The medium was removed and cells were infected with EV71 (SHZH98) of 480 pfu/well. After 2 h, various concentrations of formononetin were supplemented for incubation of another 24 h. The total RNA of the infected cells was extracted using the RNeasy Mini kit (QIAGEN) according to the manufacturer’s instructions. The one-step qRT-PCR was performed with SuperScript III Platinum SYBR Green One-step RT PCR Kit (Invitrogen) using the ABI 7500 Fast Real-Time PCR system (Applied Biosystems). The mRNA expression of EV71 VP1 was detected with sense primer 5’-[…]-3’ and antisense primer 5’-[…]-3’ targeting a conserved region of the VP1 gene. The β-actin mRNA was detected using sense primers 5’-TGACGGGGT CACCCACA CTGTGCCCATCTA-3’ and antisense primer 5’-CTAGAAGCATTTG CGGTGGACG ATG-3’.

ERK = test: Western blot of EV71-induced phosphorylation of ERK in SK-N-SH cells; format: cell-based; conditions: pretreatment 24 h, formononetin 14.91 μmol/L, pirodavir 1.08 μmol/L, EV71 15 min
Experimental: (§1) Figure 3 Formononetin but not pirodavir reduces the phosphorylation of ERK (A), p38 (B), and JNK (C) induced by EV71 infection. SK-N-SH cells (9 × 10^5 cells/well) were plated into 6-well culture plates. The cells were then pretreated with formononetin (14.91 μmol/L) and pirodavir (1.08 μmol/L), respectively. After 24 h, the cells were mock-infected or infected with 4.8 × 10^5 pfu/well of EV71 (SHZH98) for 15 min (A), 10 min (B), and 30 min (C), respectively. The cells were harvested and ERK (A) p-ERK (A), p38 (B), p-p38 (B), JNK (C), and p-JNK (C) were detected by western blot.
(§2) Cells were lysed in the M-PER mammalian protein extraction reagent (Thermo, Rockford, IL) containing halt protease inhibitor single-use cocktail (Thermo). The protein concentration was determined by the BCA reagents (Thermo). About 10 μg proteins were denatured and applied to sodium dodecyl sulfate-polyacrylamide gel electrophoresis (SDS-PAGE). The electrophoresis products were transferred to a polyvinyl idenefluoride (PVDF) film and PVDF membranes were then incubated at room temperature with specific primary antibody. After a standard washing, membranes were incubated with horse radish peroxidase (HRP)-labeled secondary antibody. The assay developed using a chemiluminescent substrate. […]

p38 = test: Western blot of EV71-induced phosphorylation of p38 in SK-N-SH cells; format: cell-based; conditions: pretreatment 24 h, formononetin 14.91 μmol/L, pirodavir 1.08 μmol/L, EV71 10 min
Experimental: as §1, §2

JNK = test: Western blot of EV71-induced phosphorylation of JNK in SK-N-SH cells; format: cell-based; conditions: pretreatment 24 h, formononetin 14.91 μmol/L, pirodavir 1.08 μmol/L, EV71 30 min
Experimental: as §1, §2

SMILES | IC50 (EV71 SHZH98 strain) [nM] | Reduction of virus-induced CPE, time course: effective time of addition (EV71 (SHZH98); pirodavir 0.84 μM, effective 0–9 h p.i., not before or during the infection) | Levels of EV71 RNA (RT-qPCR) (EV71 VP1 RNA) | EV71-stimulated phosphorylation of ERK (ERK) | EV71-stimulated phosphorylation of p38 (p38) | EV71-stimulated phosphorylation of JNK (JNK) | Reduction of virus-induced CPE, time course (EV71 (SHZH98); formononetin 9.21 μM added at 24 and 12 h before, and 0 to 6 h after EV71 infection) | Reduction of virus-induced CPE, time course (EV71 (SHZH98); formononetin 9.21 μM added at −1, 9, and 12 h of EV71 infection)
CCOC(=O)c1ccc(OCCC2CCN(c3ccc(C)nn3)CC2)cc1 [Pirodavir, reference compound] | 230 ± 40 | functioned only after viral infection (0–9 h p.i.) | decrease | not | not | not |  | 
COc1ccc(-c2coc3cc(O)ccc3c2=O)cc1 [Formononetin] | 3980 ± 800 |  | dose-dependently decreased | significantly attenuated | significantly attenuated | significantly attenuated | able to effectively reduce virus-induced CPE | did not exert this effect
